# Experiments:
# [1] = In vivo pharmacokinetic studies in dogs; conditions: for acute toxicity and fatality in vivo: PK study
# Description: All experiments were approved by the Animal Research Committee for Animal Experimentation of Toho University (No. 12-52-151) and performed in accordance with the Guidelines for the Care and Use of Laboratory Animals of Toho University. […] Plasma samples were stored at −80° C. and thawed in ice before use.
# Ice cold NDEA internal standard (IS) solution was used for protein precipitation at a plasma:IS ratio of 1:3. The mixture was vortex-mixed for 1 min, followed by centrifugation at 14,000 g at 4° C. for 15 min. The supernatant was then transferred into a vial for LC/MS/MS analysis.
# The LC/MS/MS system consisted of Infinity ultra-high-pressure liquid chromatography (UHPLC) system (Agilent Technologies Inc., Santa Clara, Calif.) with the AB SCIEX QTRAP® 5500 tandem mass spectrometry (MS/MS) system (AB SCIEX, Framingham, Mass.). MultiQuant software version 1.4.0.18067 (Applied Biosystems) was used to perform all chromatographic peak integration.
# Chromatographic separation was performed using ACQUITY UPLC BEH C18 column, 1.7 μm, 2.1×50 mm (Waters, Milford, Mass.), with a gradient elution programme. The mobile phases were 0.2% acetic acid in 5 mM ammonium acetate in water (A) and 0.2% acetic acid in ACN (B). The elution conditions were linear gradient 30-95% B (0-1.60 min), isocratic at 95% B (1.61-1.99 min), and isocratic at 30% B (2.00-2.50 min). Multiple reaction monitoring (MRM) transitions were optimized for NDEA (internal standard, IS), dronedarone and poyendarone.
# Individual pharmacokinetic parameters were estimated using NCA for IV bolus data (Model 201), using WinNonlin® (Pharsight, USA). […] Data points included in the calculation of Lambda Z (Az) were first determined by WinNonlin®, and then visually assessed and modified accordingly. Other parameters calculated include apparent total plasma clearance (CL), apparent volume of distribution based on terminal phase (Vz), apparent elimination half-life (T1/2), apparent volume at steady state (Vss), mean residence time (MRT) and MRT extrapolated to infinity (MRTinf). […]
# CYP3A4 = molecular target: T1, CYP3A4 (Homo sapiens, UniProt P08684); assay: Time- and concentration-dependent inactivation of CYP3A4, rivaroxaban probe; format: in vitro ADME; conditions: for KI (inactivation): human, recombinant CYP3A4, pH 7.4, probe rivaroxaban (50 μM), in vitro data obtained, rivaroxaban probe, read-out: Mechanism-based inactivation KI CYP3A4
# T1 construct: purchased BD Gentest (Woburn, Mass.)
# Description: (§1) Incubations were conducted in triplicates in 96-well plates. Primary incubation mixtures comprising various concentrations of inhibitor (0-20 μM) were pre-incubated at 37° C. for 3 min with CYP3A4 or CYP3A5 (20 pmol/mL) and NADPH B in potassium phosphate buffer (100 mM, pH 7.4). To initiate the enzymatic reaction, 5 μL NADPH A was added to the primary incubation. The final primary incubation mixture volume was 100 μL and contained <1% v/v organic solvent. At different pre-incubation time points (3, 8, 15, 22, 30, and 45 min) after the addition of NADPH A, 5 μL aliquots of the primary incubation were transferred to 95 μL of the secondary incubation containing 50 μM rivaroxaban, the NADPH A and B, and potassium phosphate buffer (100 mM, pH 7.4) to yield a 20-fold dilution. The secondary incubation mixtures were incubated at 37° C. for 2 h with CYP3A4 or CYP3A5 before 80 μL aliquots were removed and quenched with an equal volume of ice-cold ACN containing 4 μM dexamethasone as IS. The samples were then centrifuged at 3220 g at 4° C. for 30 min before transferring the supernatant to a 96-well plate for liquid chromatography-tandem mass spectrometry (LC-MS/MS) analysis. The main rivaroxaban metabolite, morpholinone hydroxylated metabolite, was quantified using LC-MS/MS analysis.
# The mean of triplicate peak area ratios for each inhibitor concentration and pre-incubation time was normalized to that of 0 μM inhibitor with the same pre-incubation time. The amount of rivaroxaban metabolite formed during the secondary incubation, a measure of the probe substrate activity remaining, was computed and the natural logarithm of this measure was plotted against inactivation pre-incubation time for each inactivator concentration. For each concentration, the data was then fitted to a linear regression model, through which kobs (apparent inactivation rate constant) was obtained as the negative gradient of the linear regression. […]
# CYP3A5 = molecular target: T2, CYP3A5 (Homo sapiens, UniProt P20815); assay: Time- and concentration-dependent inactivation of CYP3A5, rivaroxaban probe; format: in vitro ADME; conditions: recombinant CYP3A5, pH 7.4, probe rivaroxaban (50 μM), in vitro data obtained, read-out: Mechanism-based inactivation KI CYP3A5
# T2 construct: purchased BD Gentest (Woburn, Mass.)
# Description: as §1, with “LC-MS/MS analysis. […]” for “LC-MS/MS analysis.”
# [2] = Parallel artificial membrane permeability assay (PAMPA); format: in vitro ADME; conditions: read-out: Effective permeability
# Description: The aqueous solubility of each compound was measured in universal buffer (pH 7.4) using MultiscreenHTS PCF Filter Plates. The effective permeability of each compound was measured using the parallel artificial membrane permeability assay (PAMPA).
# T1 sequence (P08684 whole entry): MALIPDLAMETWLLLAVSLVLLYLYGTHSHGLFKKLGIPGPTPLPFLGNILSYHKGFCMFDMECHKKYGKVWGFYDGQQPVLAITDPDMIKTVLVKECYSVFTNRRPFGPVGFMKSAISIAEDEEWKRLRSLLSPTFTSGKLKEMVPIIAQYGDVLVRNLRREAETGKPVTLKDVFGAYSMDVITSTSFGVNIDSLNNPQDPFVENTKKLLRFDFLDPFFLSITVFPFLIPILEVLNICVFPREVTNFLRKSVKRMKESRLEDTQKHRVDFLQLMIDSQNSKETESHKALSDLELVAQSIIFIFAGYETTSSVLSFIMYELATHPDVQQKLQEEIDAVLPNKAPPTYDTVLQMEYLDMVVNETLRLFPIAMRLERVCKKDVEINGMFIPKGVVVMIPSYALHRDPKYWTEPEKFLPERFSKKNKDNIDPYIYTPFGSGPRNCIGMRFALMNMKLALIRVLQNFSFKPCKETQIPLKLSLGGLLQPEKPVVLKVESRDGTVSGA
# T2 sequence (P20815 whole entry): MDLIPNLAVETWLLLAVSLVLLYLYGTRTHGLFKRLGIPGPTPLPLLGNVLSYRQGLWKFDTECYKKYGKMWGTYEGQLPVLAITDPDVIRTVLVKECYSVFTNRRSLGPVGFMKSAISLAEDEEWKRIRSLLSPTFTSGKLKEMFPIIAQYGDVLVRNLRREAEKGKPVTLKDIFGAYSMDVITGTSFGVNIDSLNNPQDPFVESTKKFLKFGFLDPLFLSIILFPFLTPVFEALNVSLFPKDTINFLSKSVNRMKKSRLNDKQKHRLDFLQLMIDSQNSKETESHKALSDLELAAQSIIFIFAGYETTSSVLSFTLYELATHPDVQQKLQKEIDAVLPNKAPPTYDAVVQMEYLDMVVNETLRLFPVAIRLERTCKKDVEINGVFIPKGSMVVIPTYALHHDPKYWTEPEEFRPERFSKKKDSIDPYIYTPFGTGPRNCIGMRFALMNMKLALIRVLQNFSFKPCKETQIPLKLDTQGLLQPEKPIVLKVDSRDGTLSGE
Structure (SMILES),acute toxicity and fatality in vivo [1],KI (inactivation) (CYP3A4),MBI potency against CYP3A4 (CYP3A4; rivaroxaban probe substrate),KI (inactivation) (CYP3A5),Papp [2],"plasma disposition profile, clearance and volume of distribution compared between poyendarone and dronedarone ([1]; 3.0 mg/kg IV bolus, 3 mg/kg)"
CCCCc1oc2ccc(NS(C)(=O)=O)cc2c1C(=O)c1ccc(OCCCN(CCCC)CCCC)cc1.Cl [Dronedarone],No acute toxicity nor fatality,5.3 µM,0.00505 AV min^−1,5.37 µM,3.46 ± 0.5 ×10⁻⁶ cm/s,–
"Cl.[2H]c1c(NS(C)(=O)=O)c([2H])c2c(C(=O)c3ccc(OCCCN(CCCC)CCCC)cc3)c(CCCC)oc2c1[2H] [Poyendarone, Methanesulfonamide, N-(2-butyl-3-(4-(3-(dibutylamino)propoxy)benzoyl)-1-benzo(4,6,7-d3)-furan-5-yl)hydrochloride]",No acute toxicity nor fatality,3.19 µM,–,2.91 µM,4.08 ± 0.5 ×10⁻⁶ cm/s,comparable
